US8796275B2, “Anti-malarial compounds” (The Trustees of the University of Pennsylvania, priority 2008, dated 2014)
Like-named read-outs stand apart in the source and are kept apart here.

Columns and labels:
[1] = tested on: 3D7 strain of P. falciparum; assay: High throughput quantitative parasite growth assay, luciferase expressing parasites; assay type: cell-based, Plasmodium falciparum; details: luciferase readout, approximately 60 hours growth
Experimental: Numerous compounds were initially screened using a high throughput quantitative parasite growth assay that makes use of a strain of parasites expressing a cytoplasmic firefly luciferase (obtained from Dr. Kirk Deitsch, Cornell Medical College). These parasites were transfected with a vector containing the firefly luciferase gene using the malarial HRPII promoter. To grow parasites, culture dishes ranging from 96 well plates to 30 ml dishes were used. […] Parasites were cultured in human RBCs under an atmosphere of 5% O2/7% CO2/88% N2 in RPMI 1640 medium supplemented with 25 mM Hepes, 30 mg/L hypoxanthine, 0.225% (w/v) NaHCO3 and 0.5% (w/v) Albumax II (Life Technologies, Grand Island, N.Y.).
A standard luminescent readout was used to measure the growth of parasites. Parasites were grown under normal conditions, lysed in the presence of the luminescence reagents (Bright Glo, Promega) and then measured. To initially test for growth, luciferase expressing parasites were synchronized using serial sorbitol treatments and then parasitemia, the percentage of RBCS infected with parasites, was adjusted using uninfected RBCs. 100 μl of total media was used in a 96 well format. Parasitized RBCs were incubated in 96 well plates at 37° C. and gassed with 5% CO2, 5% O2, 90% N2. Parasites were allowed to grow for approximately 60 hours, until they successfully divided, ruptured and reinvaded new RBCs. At 10-15 hours post invasion, the cells were lysed, and luciferase levels were measured using an Analyst HT luminometer (Molecular Devices).

P. falciparum = assay: Anti-parasitic activity in vitro, human red blood cell assay; assay type: cell-based, Plasmodium falciparum
Experimental: Anti-parasitic activities were measured in vitro using a human red blood cell assay. A single P. falciparum organism typically infects an erythrocyte and produces 24 progeny within 48 hours following infection. The progeny are released and rapidly infect neighboring red blood cells. […] Observations were also made during the 48 hour incubation period to assess the susceptibility of the parasite during lifecycle stages inside and outside the host erythrocyte. […] One goal of targeting parasite membranes, rather than proteins or metabolic pathways, represents a highly innovative and novel strategy for treating parasitic diseases and distinguishes this approach from most others in this field.

food vacuole = assay: Food vacuole integrity, parasites expressing plasmepsin II-YFP, fluorescence microscopy; assay type: cell-based, Plasmodium falciparum; details: plasmepsin II-YFP marker
P. falciparum DD2 = assay: microbe, parasite or virus in culture; assay type: cell-based, Plasmodium falciparum; details: for IC50: Plasmodium falciparum, DD2, read-out: IC50 (DD2)
Source text: (§1) Flow cytometry was used for quantitation of parasitemia using SYOX Green on an LSRII.

P. falciparum 3D7 = assay: Cultures of P. falciparum 3D7, flow cytometry quantitation of parasitemia; assay type: cell-based; details: Plasmodium falciparum
Source text: as §1

[2] = tested on: uninfected red blood cells
[3] = Plasmodium falciparum, 3D7, 60 h

Compound | IC50 [1, 3] [µM] | other results
CCn1c2ccc(-c3cccc(CCCN)c3)cc2c2cc(-c3cccc(CCCN)c3)ccc21 [Compound 137] | 0.604 | 
N=C(N)NCCCCC(=O)Nc1cc(Br)cc(NC(=O)c2cc(C(=O)Nc3cc(Br)cc(NC(=O)CCCCNC(=N)N)c3SCCNC=O)ncn2)c1SCCNC=O [Compound 125] | 0.286 | 
c1cc(N2CCNCC2)ncc1-c1ccc2sc3ccc(-c4ccc(N5CCNCC5)nc4)cc3c2c1 [Compound 117] | 0.301 | 
NCCCc1cccc(-c2ccc3c(c2)-c2cc(-c4cccc(CCCN)c4)ccc2S3(=O)=O)c1 [Compound 133] | 2.03 | 
C1=C(c2ccc3sc4ccc(C5=CCNCC5)cc4c3c2)CCNC1 [Compound 138] | 0.213 | 
NCCNCc1cncc(-c2ccc3sc4ccc(-c5cncc(CNCCN)c5)cc4c3c2)c1 [Compound 140] | 1.67 | 
NCCCc1cccc(-c2ccc3c(c2)-c2cc(-c4cccc(CCCN)c4)ccc2S3(=O)=O)c1 [Compound 141] |  | IC50 [1]: 1.34 µM
c1cc(-c2ccc3sc4ccc(-c5ccnc(N6CCNCC6)c5)cc4c3c2)cc(N2CCNCC2)n1 [Compound 110] | 0.584 | 
C[C@H]1[C@H](OC(=O)CCC(=O)O)O[C@@H]2O[C@@]3(C)CC[C@H]4[C@H](C)CC[C@@H]1[C@@]24OO3 [Artesunate, artesunate, reference compound] | 0.009 | 
NCCc1cccc(-c2ccc3c(c2)c2cc(-c4cccc(CCN)c4)ccc2[s+]3[O-])c1 [Compound 134] | 2.44 | 
NCCCc1cccc(-c2ccc3sc4ccc(-c5cccc(CCCN)c5)cc4c3c2)c1 [Compound 116] | 0.318 | IC50 (P. falciparum; Plasmodium falciparum, Erythrocyte, minimum concentration resulting in 50% killing, 48 hour incubation): 0.05 µM; IC50 (μM) (P. falciparum; minimum concentration resulting in 50% killing, 48 hour incubation): sub-μM; IC100 (P. falciparum; minimum concentration resulting in 100% killing, 48 hour incubation): 0.850 µM; % Kill @ 10 μM (P. falciparum; single concentration 10 μM): 100%
NCc1cccc(-c2ccc3sc4ccc(-c5cccc(CN)c5)cc4c3c2)c1 [Compound 131] |  | IC50 [1]: 0.235 µM
NCCCc1ccc(-c2ccc3sc4ccc(-c5ccc(CCCN)cc5)cc4c3c2)cc1 [Compound 130] |  | IC50 [1]: 2.56 µM
COc1ccc(CCN)cc1-c1ccc2sc3ccc(-c4cc(CCN)ccc4OC)cc3c2c1 [Compound 135] | 0.108 | 
NCCc1cccc(-c2ccc3sc4ccc(-c5cccc(CCN)c5)cc4c3c2)c1 [Compound 106] | 1.15 | disruption of food vacuoles (food vacuole): disrupted food vacuoles; effectiveness in strain DD2 (P. falciparum DD2; DD2 strain): effective; IC50 (P. falciparum DD2): 0.1 µM; IC50 (P. falciparum 3D7; 3D7 strain, read-out: IC50 (3D7)): 0.15 µM; cytotoxicity (human HepG2 cells): 40 to 50 µM; hemolytic [2]: Neither compound, however, was hemolytic
NCc1cccc(-c2ccc3[nH]c4ccc(-c5cccc(CN)c5)cc4c3c2)c1 [Compound 118] | 0.364 | 
NCCCc1cccc(-c2ccc3[nH]c4ccc(-c5cccc(CCCN)c5)cc4c3c2)c1 [Compound 119] | 1.86 | 
NCCCc1cccc(-c2ccc3oc4ccc(-c5cccc(CCCN)c5)cc4c3c2)c1 [Compound 120] | 0.604 | 
N=C(N)NCCCc1cccc(-c2ccc3sc4ccc(-c5cccc(CCCNC(=N)N)c5)cc4c3c2)c1 [Compound 139] | 1.17 | 
CCN(CC)CCCC(C)Nc1ccnc2cc(Cl)ccc12 (stereo not shown) [chloroquine, reference compound] |  | resistance of DD2 strain relative to 3D7 strain (P. falciparum DD2; DD2 vs 3D7): 4 times; IC50 (P. falciparum DD2): 0.08 µM; IC50 (P. falciparum 3D7; 3D7, read-out: IC50 (3D7)): 0.02 µM
NCCN1CC=C(c2ccc3sc4ccc(C5=CCN(CCN)CC5)cc4c3c2)CC1 [Compound 136] | 0.958 | 
c1cc(N2CCNCC2)ccc1-c1ccc2sc3ccc(-c4ccc(N5CCNCC5)cc4)cc3c2c1 [Compound 132] | 0.236 | 
